Several values for one entry are separate records, joined by “and”; a condition that tells them apart may be missing. Equal values may be shown once. Entries after “also recorded” stand apart in the source; their conditions may differ.
Tests used:
[1] = test system: BRG1 mutant and BRG1 wild-type cell lines; test: Anaphase bridge analysis; format: cell-based, human
Experimental: To quantify anaphase bridges, cells were grown on 4-well cultures slides (Lab Tek II). Adherent cells were fixed with 4% paraformaldehyde for 20 min, washed and stained with Vectashield™ with 4′,6-diamidino-2-phenylindole (DAPI; Vector Labs). Images were taken of each anaphase structure, and the number of anaphases with bridges over the total number of anaphases (between 11 and 34 total anaphases per well of a 4-well chamber slide) was recorded for each of three or more independent biological replicate experiments.

[2] = test system: human NSCLC lines; test: Cytotox assays: chemotherapy dose response curves with or without EZH2 inhibitor, 4 days; format: cell-based
Experimental: Cell lines were dissociated, counted and plated at 5000 cells per well in flat bottom opaque tissue culture treated 96 well plates (CytoOne). Edge wells were filled with PBS. The following day, 2× drug diluted in media was added to each well such that the well then contained 100 ul media with 1× drug concentration. After 4 days, Cell Titer Glo™ (Promega) was added and luminescence was read on a BioTec plate reader to determine relative cell number in each well. Data were averaged for triplicate or quadruplicate technical replicates, normalized to the untreated wells and input into GraphPad Prism software to extrapolate IC50.
Cell lines were dissociated, counted and plated at 5000 cells per well in flat bottom opaque tissue culture treated 96 well plates (CytoOne). Edge wells were filled with PBS. The following day, 2× drug diluted in media was added to each well such that the well then contained 100 ul media with 1× drug concentration at the following doses: etoposide; 0, 0.1, 1, 3, 5, 7, 10, 50, 100, 500 μM, cisplatin; 0, 0.1, 1, 5, 10, 30, 70, 100, 500 μM, or doxorubicin; 0, 0.01, 0.1, 0.5, 1, 3, 5, 7, 10, 50 μM. […] Data were averaged for triplicate or quadruplicate technical replicates and normalized to the untreated wells. Results from three or four independent biological replicate experiments were input into […] PRISM™ software to extrapolate IC50 and s.e.m. of IC50 for a given cell line.

[3] = test system: HCC15; test: 7AAD cell cycle flow cytometry, stably transduced lines; format: cell-based, human
Experimental: (§1) Cell lines were plated at 1.5×10^6 cells per 10 cm plate and treated with drug for 4 days. Cells were then dissociated, fixed with 100% ice cold Ethanol for at least 2 hours, incubated for 30 minutes with 1 mg/mL RNase A and resuspended in 20 μg/mL 7AAD. 30,000 events were collected on the BD Facscalibur™ and analyzed with the ModFit LT™ software. In cases where etoposide treated cells had such abnormal ploidy that ModFit LT™ was unable to correctly model the cell cycle, the data was analyzed manually on FlowJo™ software by setting the gates on the etoposide sample and copying them to the etoposide+DZNep and etoposide shEZH2 samples.
(§2) For 7AAD-cell cycle analysis, cell lines were plated at 1.5×10^6 cells per 10 cm plate and treated with drug for 4 days. Cells were then dissociated, fixed with 100% ice cold Ethanol for at least 2 hours, incubated for 30 minutes with 1 mg/mL DNase-free RNase A (Thermo) and resuspended in 20 μg/mL 7-Aminoactinomycin D (7AAD; Invitrogen). 30,000 events were collected on the BD FORTESSA™ and analyzed with the MODFIT LT™ software. Results from three to four independent biological replicate experiments were averaged for each cell line.

[4] = test system: H460; test: as above; format: cell-based, human; conditions: etoposide treated H460 shBrg1 and EGFR over-expression
Experimental: as §1, §2

[5] = test system: H441; test: Growth rate over 10 day time-course (Cell Titer Glo); format: cell-based, human; conditions: H441, 1 μM DZNep, 10 day time-course
Experimental: (§3) FIG. 2A depicts a Western Blot for EZH2 and H3K27me3 performed on whole cell extracts 4 days after indicated treatments, β-actin shown as a loading control. FIG. 2B depicts a graph of the growth rates of matched shGFP and shGFP cells treated with 1 μM DZNep and assayed by Cell Titer Glo at days 3, 5, 7, and 10 post plating at equal densities. Average luminescence ±s.e.m. for 3 replicate wells is shown based on when each shGFP cell line reached logarithmic growth, * indicates p<0.03. FIG. 2C depicts a graph of the response to Etoposide. Cell lines were plated at equal densities and treated a range of etoposide doses with or without 1 μM DZNep. On the 4th day, cell viability was measured using Cell Titer Glo and the percent survival at each dose of etoposide was calculated. Dose response curves were generated for the no DZNep and DZNep treated cells using the GraphPad prism software and IC50s were extrapolated. The fold change±s.e.m. of etoposide IC50 in response to DZNep is plotted, n=4 biological replicates, * indicates p<0.05. Cell lines with mutations in Brg1, EGFR and B-Raf are indicated.

[6] = test system: HCC15; test: as above; format: cell-based, human; conditions: HCC15, 1 μM DZNep, 10 day time-course
Experimental: as §3

[7] = test system: HCC95; test: as above; format: cell-based, human; conditions: HCC95, 1 μM DZNep, 10 day time-course
Experimental: as §3

[8] = test system: H157; test: as above; format: cell-based, human; conditions: H157, 1 μM DZNep, 10 day time-course
Experimental: as §3

[9] = test system: Calu6; test: as above; format: cell-based, human; conditions: Calu6, 1 μM DZNep, 10 day time-course
Experimental: as §3

[10] = test system: sensitized and protected NSCLC cell lines; test: 7AAD cell cycle flow cytometry; format: cell-based, human
Experimental: as §1, §2

Nc1nccc2c1ncn2[C@@H]1C=C(CO)[C@@H](O)[C@H]1O [DZNep, 3-Deazaneplanocin A]
anaphase bridging when challenged with DZNep ([1]; BRG1 mutant cell lines): increased anaphase bridging
anaphase bridging when challenged with DZNep ([1]; BRG1 wild-type lines): significant decrease
anaphase bridging (TopoII dysfunction) in response to DZNep ([1]; HCC15 control line): increase in TopoII dysfunction
cell lines more sensitive to etoposide in the presence of DZNep ([2]; 1 μM DZNep, 4 days, panel of 29 (Example 1) or 26 (Example 2) lines): 16 of the 29 and 14 of the 26
sensitivity to etoposide in the presence of DZNep, protected lines ([2]; H23, H460 and H441, 1 μM DZNep, 4 days): less sensitive
sensitivity to etoposide in the presence of DZNep, sensitized lines ([2]; H157, HCC15, PC9, H157, A549, PC9, 1 μM DZNep, 4 days): more sensitive
pattern of sensitized and protected cells with cisplatin combined with DZNep ([2]; cis-platinum combined with DZNep): not observed
S phase change in response to DZNep ([3]; etoposide treated HCC15 Brg1 over-expression): dramatically smaller accumulation in S phase; also recorded: did not accumulate in S phase
S phase change in response to DZNep ([3]; etoposide treated HCC15 shEGFR): decrease in S phase; also recorded: no additional increase in S phase
S phase change in response to DZNep [4]: enriched for S phase
decrease in proliferation [5]: 2.1 fold
decrease in proliferation [6]: 3.2 fold
change in proliferation [7]: increased proliferation
decrease in proliferation [8]: 2.1 fold
decrease in proliferation [9]: 2.1 fold
average fewer cells in S phase vs etoposide alone ([10]; protected cell lines, 10 μM etoposide + 1 μM DZNep, 4 days): 10%
average fewer cells in S phase vs etoposide alone ([10]; protected lines, 5 μM etoposide, DZNep 1 μM or shEZH2, 4 days): 14%
average more cells in S phase in response to DZNep ([10]; sensitized cell lines, 10 μM etoposide + 1 μM DZNep, 4 days): 20%
average more cells in S phase ([10]; sensitized lines, 5 μM etoposide, DZNep 1 μM or shEZH2, 4 days): 14%

Reference: US9895390B2, “Methods and assays for combination treatment of cancer” (CHILDREN'S MEDICAL CENTER CORPORATION, priority 2012, dated 2018)
